Laboratory results published in patent US6759521B2, “Polarization switching to control crystal form” (priority 2000, dated 2004).

Settings: glycine in water, room temperature (21 C)
Method: Supersaturated solutions of glycine in water, with concentrations ranging from 3.7 M to 3.9 M, were prepared by combining appropriate amounts of solid glycine with 2 g of water in 1.3-cm diameter Pyrex test tubes with screw-on caps. Great care was taken to exclude dust from samples. Supersaturation was achieved by heating the samples in an ultrasonic bath at 50 C, and holding them at that temperature until the glycine was completely dissolved.

SMILES: NCC(=O)O [glycine]
- csat, concentration of a saturated solution: 2.69 M
